Laboratory results published in patent US20250380697A1, “ISOXAZOLINE DERIVATIVE COMPOUND AND INSECTICIDAL COMPOSITION COMPRISING SAME” (KYUNG NONG CORPORATION, priority 2022, published 2025).

Assays:
Type in all cases: in vivo
Plutella xylostella = assay: Pesticidal activity against Plutella xylostella, leaf-dipping method; settings: 48 h, read-out: larvae mortality rate against Plutella xylostella
Protocol: Cabbage (Daiya) leaves were cut into pieces with a diameter of 5.8 cm, dipped in each of the pesticide compositions prepared in Examples (a 5% acetone solution in which each of the compounds of Synthesis Examples (concentration: 100 ppm) was diluted) for 30 seconds, and sufficiently shade-dried. Then, the shade-dried cabbage leaves were placed in a petri dish (8.8 cm in diameter) covered with a filter paper and repeatedly inoculated 3 times with third instar larvae of Plutella xylostella, 10 larvae per inoculation. In particular, Plutella xylostella larvae used were those which were collected in a place near Gyeongju (Korea) in 2000 and bred in a breeding room for multiple generations. Then, the Plutella xylostella larvae were stored under the conditions of 16 hours of light and 8 hours of dark, 25±1° C., and relative humidity of 50-60%, and the number of live Plutella xylostella larvae was counted 48 hours after the inoculation. Thereafter, the larvae mortality rate was calculated by correcting the density after treatment based on the density before treatment, as shown in Equation 1 and Equation 2 below, and converting the same into the corrected mortality rate for untreated (Reference: A method of computing the effectiveness of an insecticide. J. Econ. Entomol. 18:265˜267. Abbott, 1925).

Spodoptera litura = assay: Pesticidal activity against Spodoptera litura, leaf-dipping method; settings: 48 h, read-out: mortality rate against Spodoptera litura
Protocol: Cabbage (Daiya) leaves were cut into pieces with a diameter of 5.8 cm, dipped in each of the pesticide compositions prepared in Examples (a 5% acetone solution in which each of the compounds of Synthesis Examples (concentration: 100 ppm) was diluted) for 30 seconds, and sufficiently shade-dried. Then, the shade-dried cabbage leaves were placed in a petri dish (8.8 cm in diameter) covered with a filter paper and repeatedly inoculated 3 times with the second instar larvae of Spodoptera litura, 10 larvae per inoculation. In this case, Spodoptera litura larvae used were those which were purchased from the Bio Utilization Institute (Andong, Korea). Then, the Spodoptera litura larvae were stored under the conditions of 16 hours of light and 8 hours of dark, 25±1° C., and relative humidity of 50-60%, and the number of live Spodoptera litura larvae was counted 48 hours after the inoculation. Thereafter, the larvae mortality rate was calculated in the same manner as in Test Example 1 above.

[1] = tested on: Frankliniella occidentalis; assay: Pesticidal activity against Frankliniella occidentalis, spray method; settings: 48 h, read-out: mortality rate against Frankliniella occidentalis
Source text: A water-soaked filter paper (9.0 cm in diameter) was placed in an insect breeding dish (Lab Guide®) with a diameter of 9.0 cm and a height of 4.0 cm, and then parafilm (width 4.0 cm×height 4.0 cm) was placed thereon. Before treating with a pesticide composition, 10 adult Frankliniella occidentalis were inoculated per petri dish using a No. 4 brush. In this case, Frankliniella occidentalis adults used were those purchased from the Bio Utilization Institute (Andong, Korea). Then, each of the pesticide compositions prepared in Examples (a diluted solution in which each of the compounds of Synthesis Examples (concentration: 100 ppm) was diluted; the solvent=distilled water+acetone 50,000 mg/L+Triton X-100 100 mg/L) was loaded into a 100 mL small sprayer, and sprayed 10-12 times at a distance of 30 cm and a height of 50 cm, and one cotyledons of soybean, which is a host plant, were added one at a time. Then, the Frankliniella occidentalis adults were stored under the conditions of 16 hours of light and 8 hours of darkness, 25±1° C., and relative humidity of 50-60%, and the number of live Frankliniella occidentalis adults was counted 48 hours after the inoculation. Thereafter, the larvae mortality rate was calculated in the same manner as in Test Example 1 above.

Measured: mortality at 100 ppm

Cc1cc(C2=NOC(c3cc(Cl)cc(C(F)(F)F)c3)(C(F)(F)F)C2)ccc1C(=O)NC(=O)C1CCOCC1 (stereo not drawn) [Synthesis Example 65]
≥ 80%: all assays above

Cc1cc(C2=NOC(c3cc(Cl)cc(C(F)(F)F)c3)(C(F)(F)F)C2)ccc1C(=O)NC(=O)C1(C(F)(F)F)CC1 (stereo not drawn) [Synthesis Example 29]
≥ 80%: all assays above

Cc1cc(C(=O)NC(=O)c2ccc(C3=NOC(c4cc(Cl)cc(C(F)(F)F)c4)(C(F)(F)F)C3)cc2C)no1 (stereo not drawn) [Synthesis Example 82]
≥ 80%: all assays above

Cc1cc(C2=NOC(c3cc(C(F)(F)F)cc(C(F)(F)F)c3)(C(F)(F)F)C2)ccc1C(=O)NC(=O)C1CC1 (stereo not drawn) [Synthesis Example 5]
≥ 80%: all assays above

Cc1cc(C2=NOC(c3cc(Cl)cc(C(F)(F)F)c3)(C(F)(F)F)C2)ccc1C(=O)N(C)C(=O)C1CC1 (stereo not drawn) [Synthesis Example 11]
≥ 80%: all assays above

O=C(NC(=O)C1CC1)c1ccc(C2=NOC(c3cc(Cl)cc(C(F)(F)F)c3)(C(F)(F)F)C2)cc1Br (stereo not drawn) [Synthesis Example 8]
≥ 80%: all assays above

Cc1cc(C(=O)NC(=O)c2ccc(C3=NOC(c4cc(Cl)cc(C(F)(F)F)c4)(C(F)(F)F)C3)cc2C)c(C)o1 (stereo not drawn) [Synthesis Example 57]
≥ 80%: all assays above

Cc1cc(C2=NOC(c3cc(Cl)cc(Cl)c3)(C(F)(F)F)C2)ccc1C(=O)NC(=O)N1CCCCC1 (stereo not drawn) [Synthesis Example 66]
≥ 80%: all assays above

Cc1cc(C2=NOC(c3cc(Cl)cc(C(F)(F)F)c3)(C(F)(F)F)C2)ccc1C(=O)N(C(=O)C1CC1)C(=O)C1CC1 (stereo not drawn) [Synthesis Example 22]
≥ 80%: all assays above

O=C(c1ccc(C2=NOC(c3cc(Cl)cc(C(F)(F)F)c3)(C(F)(F)F)C2)c2ccccc12)N(CCF)C(=O)C1CC1 (stereo not drawn) [Synthesis Example 17]
≥ 80%: all assays above

Cc1cc(C2=NOC(c3cc(Cl)cc(C(F)(F)F)c3)(C(F)(F)F)C2)ccc1C(=O)NC(=O)C1(C)CC1 (stereo not drawn) [Synthesis Example 25]
≥ 80%: all assays above

Cc1cc(C2=NOC(c3cc(Cl)cc(C(F)(F)F)c3)(C(F)(F)F)C2)ccc1C(=O)N(CC1CC1)C(=O)C1CC1 (stereo not drawn) [Synthesis Example 21]
≥ 80%: all assays above

Cc1cc(C2=NOC(c3cc(Cl)cc(Cl)c3)(C(F)(F)F)C2)ccc1C(=O)NC(=O)c1nccs1 (stereo not drawn) [Synthesis Example 79]
≥ 80%: all assays above

Cc1cc(C2=NOC(c3cc(Cl)cc(Cl)c3)(C(F)(F)F)C2)ccc1C(=O)NC(=O)c1ccccc1 (stereo not drawn) [Synthesis Example 37]
≥ 80%: all assays above

Cc1cc(C2=NOC(c3cc(Cl)cc(C(F)(F)F)c3)(C(F)(F)F)C2)ccc1C(=O)NC(=O)c1ccc(C#N)cc1 (stereo not drawn) [Synthesis Example 76]
≥ 80%: all assays above

Cc1cc(C2=NOC(c3cc(Cl)cc(Cl)c3)(C(F)(F)F)C2)ccc1C(=O)NC(=O)C1(C#N)CC1 (stereo not drawn) [Synthesis Example 26]
≥ 80%: all assays above

Cc1cc(C2=NOC(c3cc(Cl)cc(C(F)(F)F)c3)(C(F)(F)F)C2)ccc1C(=O)NC(=O)c1nccs1 (stereo not drawn) [Synthesis Example 78]
≥ 80%: all assays above

Cc1cc(C2=NOC(c3cc(Cl)cc(C(F)(F)F)c3)(C(F)(F)F)C2)ccc1C(=O)NC(=O)C1CCCCC1 (stereo not drawn) [Synthesis Example 40]
≥ 80%: all assays above

CN(C(=O)c1ccc(C2=NOC(c3cc(Cl)cc(C(F)(F)F)c3)(C(F)(F)F)C2)c2ccccc12)C(=O)C1CC1 (stereo not drawn) [Synthesis Example 12]
≥ 80%: all assays above

Cn1cc(C(=O)NC(=O)c2ccc(C3=NOC(c4cc(Cl)cc(Cl)c4)(C(F)(F)F)C3)c3ccccc23)c(C(F)F)n1 (stereo not drawn) [Synthesis Example 46]
≥ 80%: all assays above

CN(C(=O)c1ccc(C2=NOC(c3cc(Cl)cc(Cl)c3)(C(F)(F)F)C2)c2ccccc12)C(=O)C1CC1 (stereo not drawn) [Synthesis Example 14]
≥ 80%: all assays above

Cc1cc(C2=NOC(c3cc(Cl)cc(Cl)c3)(C(F)(F)F)C2)ccc1C(=O)NC(=O)C1(F)CC1 (stereo not drawn) [Synthesis Example 49]
≥ 80%: all assays above

Cc1cc(C2=NOC(c3cc(Cl)cc(C(F)(F)F)c3)(C(F)(F)F)C2)ccc1C(=O)NC(=O)C1(C)CC1(F)F (stereo not drawn) [Synthesis Example 31]
≥ 80%: all assays above

Cc1cc(C2=NOC(c3cc(Cl)cc(C(F)(F)F)c3)(C(F)(F)F)C2)ccc1C(=O)NC(=O)C1CCCO1 (stereo not drawn) [Synthesis Example 85]
≥ 80%: all assays above

Cc1ccc(C(=O)N(C)C(=O)c2ccc(C3=NOC(c4cc(Cl)cc(C(F)(F)F)c4)(C(F)(F)F)C3)cc2C)o1 (stereo not drawn) [Synthesis Example 18]
≥ 80%: all assays above

Cc1cc(C(=O)NC(=O)c2ccc(C3=NOC(c4cc(Cl)cc(Cl)c4)(C(F)(F)F)C3)cc2C)no1 (stereo not drawn) [Synthesis Example 80]
≥ 80%: all assays above

Cc1cc(C2=NOC(c3cc(Cl)cc(C(F)(F)F)c3)(C(F)(F)F)C2)ccc1C(=O)NC(=O)C1CCC1 (stereo not drawn) [Synthesis Example 33]
≥ 80%: all assays above

O=C(NC(=O)C1CC1)c1ccc(C2=NOC(c3cc(Cl)cc(C(F)(F)F)c3)(C(F)(F)F)C2)cn1 (stereo not drawn) [Synthesis Example 10]
≥ 80%: all assays above

Cc1cc(C2=NOC(c3cc(Cl)cc(Cl)c3)(C(F)(F)F)C2)ccc1C(=O)NC(=O)C1CCC1 (stereo not drawn) [Synthesis Example 32]
≥ 80%: all assays above

Cc1cc(C2=NOC(c3cc(Cl)cc(C(F)(F)F)c3)(C(F)(F)F)C2)ccc1C(=O)NC(=O)C1CCCC1 (stereo not drawn) [Synthesis Example 69]
≥ 80%: all assays above

CC(C)=CC(=O)NC(=O)c1ccc(C2=NOC(c3cc(Cl)cc(C(F)(F)F)c3)(C(F)(F)F)C2)cc1C (stereo not drawn) [Synthesis Example 70]
≥ 80%: all assays above

Cc1cc(C(=O)NC(=O)c2ccc(C3=NOC(c4cc(Cl)cc(Cl)c4)(C(F)(F)F)C3)cc2C)c(C)o1 (stereo not drawn) [Synthesis Example 56]
≥ 80%: all assays above

C/C=C/C(=O)NC(=O)c1ccc(C2=NOC(c3cc(Cl)cc(C(F)(F)F)c3)(C(F)(F)F)C2)cc1C (stereo not drawn) [Synthesis Example 71]
≥ 80%: all assays above
